# Experimental data from doi:10.1101/2025.11.04.686469, “Discovery of Host-Directed Small Molecules with Broad Anti-Leishmanial Efficacy” (bioRxiv, 2025).
# Where two headings read alike, the source gives them in different places.
# Test system: extracellular L. donovani promastigotes
# Experiment: Effect of compounds on promastigote viability (resazurin assay)
# Assay type: cell-based, Leishmania donovani
# Conditions: for MIC50: Leishmania donovani, 72-hour incubation
# Method: The effect of compounds on extracellular promastigotes was evaluated using a resazurin-based assay as described previously. In short, late log phase Leishmania promastigotes were seeded in a 96 well plate at 1 x 10^5 parasites per well and treated with drugs (0.5 – 200 μM) for 72 hours at 25°C. Ten microliters of resazurin (0.02% w/v) were added to the treated parasites to achieve a final concentration of 0.002% w/v and incubated for 24 hours. Viability of the promastigotes was assessed by fluorescence (excitation 544 nm, emission 590 nm, SpectraMax M2, Molecular Devices).
smiles,measurement,setting,value
O=C(CNCc1cccc(F)c1)Nc1ccc(-n2cc(C(F)(F)F)nc2-c2ccc(-c3ccc(C(F)(F)F)cc3)cc2)cc1 [Compound 197],MIC50,"resazurin assay (Table 3), read-out: L. donovani Extracellular promastigotes MIC50",6.4 µM
same,MIC50,"resazurin assay, read-out: Extracellular L. donovani promastigotes MIC50",6.4 µM
same,direct effect on extracellular promastigote viability,"resazurin assay, strain not named for 53, L. donovani for 197",some direct reduction
